Source: US20250282736A1, “SMALL MOLECULE MODULATORS OF HUMAN PREGNANE X RECEPTOR” (ST. JUDE CHILDREN'S RESEARCH HOSPITAL, priority 2022, published 2025)
Like-named read-outs stand apart in the source and are kept apart here.

Experiments:
hPXR [1] = target: T1, hPXR (Homo sapiens (Human), UniProt O75469); experiment: cell-based hPXR inverse agonistic assay; conditions: for inhibition at 10 µM: read-out: Inverse agonist (% inhibition at 10 μM)
hPXR [2] = target: T1, hPXR; experiment: cell-based hPXR antagonistic assay; conditions: for inhibition at 10 µM: read-out: Antagonist (% inhibition at 10 μM)
hPXR [3] = target: T1, hPXR; experiment: cell-based hPXR agonistic assay; conditions: for Agonist (% activation at 10 μM): rifampicin at 10 μM as 100% activation, DMSO (0.3%) as 0%
hPXR [4] = target: T1, hPXR; experiment: hPXR binding assay; conditions: for inhibition at 10 µM: read-out: Binding (% inhibition at 10 μM)
[5] = read-out: Agonist (EC50/μM), cell-based hPXR agonistic assay
[6] = read-out: Binding (IC50/μM), hPXR binding assay
[7] = read-out: Inverse agonist (IC50/μM), cell-based hPXR inverse agonistic assay
[8] = read-out: Antagonist (IC50/μM), cell-based hPXR antagonistic assay with rifampicin (5 μM)

T1 sequence (O75469 whole entry): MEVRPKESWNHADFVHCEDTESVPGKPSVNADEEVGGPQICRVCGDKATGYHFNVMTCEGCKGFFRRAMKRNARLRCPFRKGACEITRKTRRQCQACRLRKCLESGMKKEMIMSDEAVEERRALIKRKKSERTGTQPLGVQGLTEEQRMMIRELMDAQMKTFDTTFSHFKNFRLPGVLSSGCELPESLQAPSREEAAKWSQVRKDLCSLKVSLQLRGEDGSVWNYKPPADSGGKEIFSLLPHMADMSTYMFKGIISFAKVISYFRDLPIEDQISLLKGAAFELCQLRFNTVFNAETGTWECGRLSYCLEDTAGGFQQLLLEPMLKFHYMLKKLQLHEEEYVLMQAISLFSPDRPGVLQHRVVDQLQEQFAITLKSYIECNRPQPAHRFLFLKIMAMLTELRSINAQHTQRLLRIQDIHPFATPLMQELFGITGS

Row | IC50 (hPXR [1]) [µM] | IC50 (hPXR [2]) [µM] | Agonist (% activation at 10 μM) (hPXR [3]) | EC50 (hPXR [3]; [5]) [µM] | inhibition at 10 µM (hPXR [4]) [%] | IC50 (hPXR [4]; [6]) [µM] | inhibition at 10 µM (hPXR [2]) [%] | EC50 (hPXR [3]) [µM] | IC50 (hPXR [4]) [µM] | inhibition at 10 µM (hPXR [1]) [%] | IC50 (hPXR [1]; [7]) [µM] | Antagonist (% inhibition at 10 μM) (hPXR [2]; at 10 μM, SPA70 at 10 μM with rifampicin (5 μM) as 100% inhibition, rifampicin alone (5 μM) as 0%) | IC50 (hPXR [2]; [8]) [µM] | Compound
1 | > 30 | 5.44 ± 1 | – | – | – | – | 40 | > 30 | > 30 | – | – | – | – | COc1ccc(OC)c(-n2nnc(C(=O)Nc3cc(OCCOCCOCCOCCNC(=O)CCCC[C@@H]4SC[C@@H]5NC(=O)N[C@@H]54)cc(C(C)(C)C)c3)c2C)c1 [L1]
2 | > 30 | > 30 | – | – | 53 | 1.2 ± 0.3 | – | > 30 | – | – | – | – | – | COc1ccc(-n2nnc(C(=O)Nc3cc(C)ccc3OC)c2C)cc1 [E10]
3 | 0.065 ± 0.039 | 0.32 ± 0.02 | – | – | 90 | 0.23 ± 0.1 | 99 | > 30 | – | 97 | – | – | – | CCC[C@H](CC)Oc1ccc(C(C)(C)C)cc1NC(=O)c1nnn(-c2cc(Cl)c(Cl)cc2OC)c1C [M12, (S)—N-(5-(Tert-Butyl)-2-(Hexan-3-yloxy)Phenyl)-1-(4,5-Dichloro-2-Methoxyphenyl)-5-Methyl-1H-1,2,3-Triazole-4-Carboxamide]
4 | 0.29 ± 0.18 | 1.18 ± 0.21 | – | – | 84 | 1.64 | 104 | > 30 | – | 101 | – | – | – | COc1ccc(Cl)cc1-n1nnc(C(=O)Nc2cc(O)cc(C(C)(C)C)c2)c1C [F4]
5 | > 30 | > 30 | – | – | – | – | – | > 30 | > 30 | – | – | – | – | COc1ccc(-n2nnc(C(=O)Nc3ccccc3)c2C)cc1 [E4]
6 | 0.31 | 1.09 ± 0.3 | – | – | 25 | 0.31 ± 0.17 | 107 | > 30 | – | 105 | – | – | – | COC(=O)CCCOc1cc(NC(=O)c2nnn(-c3cc(OC)ccc3OC)c2C)cc(C(C)(C)C)c1 [D29]
7 | > 30 | > 30 | (32 ± 4)% | 2.77 ± 0.47 | – | – | – | – | > 30 | – | – | – | – | CCCCOc1ccc(C(C)(C)C)cc1NC(=O)c1nnn(-c2cc(OC)cc(OC)c2)c1C [H16]
8 | 0.82 | 1.7 | – | – | 71 | 1.08 ± 0.36 | 105 | > 30 | – | 111 | – | – | – | COc1ccc(C)cc1-n1nnc(C(=O)Nc2ccc(OC)c(C(C)(C)C)c2)c1C [G3]
9 | 0.066 ± 0.014 | 0.24 | – | – | 67 | 0.044 ± 0.016 | 102 | > 30 | – | 93 | – | – | – | COc1ccc(Cl)cc1-n1nnc(C(=O)Nc2cc(C(C)(C)C)cc(C(C)(C)C)c2)c1C [F1]
10 | > 30 | > 30 | (29 ± 5)% | – | – | – | – | 0.79 ± 0.26 | > 30 | – | – | – | – | COc1ccc(-n2nnc(C(=O)Nc3ccc(C)cc3)c2C)cc1 [E7]
11 | 0.0044 ± 0.0015 | 0.023 ± 0.003 | – | – | 92 | 0.02 ± 0.005 | 104 | > 30 | – | 92 | – | – | – | CCC[C@H](CC)Oc1ccc(C(C)(C)C)cc1NC(=O)c1nnn(-c2cc(OC)c(F)cc2OC)c1C [M10, (S)—N-(5-(Tert-Butyl)-2-(Hexan-3-yloxy)Phenyl)-1-(4-Fluoro-2,5-Dimethoxyphenyl)-5-Methyl-1H-1,2,3-Triazole-4-Carboxamide]
12 | > 30 | > 30 | – | – | – | – | – | > 30 | > 30 | – | – | – | – | CCCCOc1ccc(C(C)(C)C)cc1NC(=O)c1nnn(-c2ccc(OC)cc2)c1C [E9]
13 | > 30 | 65 ± 28 | (92 ± 8)% | – | 94 | – | 15 | 0.0066 ± 0.0002 | 0.045 ± 0.013 | – | – | – | – | CCC[C@H](CC)Oc1ccc(C(C)(C)C)cc1NC(=O)c1nnn(-c2cc(C)c(OC)cc2OC)c1C [M11, (S)—N-(5-(Tert-Butyl)-2-(Hexan-3-yloxy)Phenyl)-1-(2,4-Dimethoxy-5-Methylphenyl)-5-Methyl-1H-1,2,3-Triazole-4-Carboxamide]
14 | – | – | – | – | – | 0.33 ± 0.11 | – | > 30 | – | – | 0.12 | (109 ± 6)% | 0.41 ± 0.13 | CNc1cc(NC(=O)c2nnn(-c3cc(OC)ccc3OC)c2C)cc(C(C)(C)C)c1 [D2, N-(3-(tert-butyl)-5-(methylamino)phenyl)-1-(2,5-dimethoxyphenyl)-5-methyl-1H-1,2,3-triazole-4-carboxamide]
15 | > 30 | > 30 | (43 ± 8)% | 4.61 ± 1.18 | – | – | – | – | > 30 | – | – | – | – | CCCCOc1ccc(C(C)(C)C)cc1NC(=O)c1nnn(-c2ccc3c(c2)OCO3)c1C [H18]
16 | > 30 | > 30 | (41 ± 3)% | – | – | – | – | 4.05 ± 1.52 | > 30 | – | – | – | – | COc1ccc(-n2nnc(C(=O)Nc3cccc(C(C)(C)C)c3)c2C)cc1 [E5]
17 | – | – | – | – | – | 0.45 ± 0.12 | – | > 30 | – | – | 0.039 ± 0.012 | – | 0.13 | CCCCNc1cc(NC(=O)c2nnn(-c3cc(OC)ccc3OC)c2C)cc(C(C)(C)C)c1 [D4, N-(3-(tert-butyl)-5-(butylamino)phenyl)-1-(2,5-dimethoxyphenyl)-5-methyl-1H-1,2,3-triazole-4-carboxamide]
18 | > 30 | > 30 | – | – | – | – | – | > 30 | > 30 | – | – | – | – | CCCCOc1ccc(C(C)(C)C)cc1NC(=O)c1nnn(-c2ccncc2)c1C [H13]
19 | > 30 | > 30 | (61 ± 4)% | – | – | – | – | 3.39 ± 0.14 | > 30 | – | – | – | – | COc1ccc(OC)c(-n2nnc(NC(=O)Nc3ccc(C(C)(C)C)cc3)c2C)c1 [K3]

The next lines start with the compound.

Row | Compound | IC50 (hPXR [1]) [µM] | IC50 (hPXR [2]) [µM] | Agonist (% activation at 10 μM) (hPXR [3]) | EC50 (hPXR [3]; [5]) [µM] | inhibition at 10 µM (hPXR [4]) [%] | IC50 (hPXR [4]; [6]) [µM] | inhibition at 10 µM (hPXR [2]) [%] | EC50 (hPXR [3]) [µM] | IC50 (hPXR [4]) [µM] | inhibition at 10 µM (hPXR [1]) [%] | IC50 (hPXR [1]; [7]) [µM] | Antagonist (% inhibition at 10 μM) (hPXR [2]; at 10 μM, SPA70 at 10 μM with rifampicin (5 μM) as 100% inhibition, rifampicin alone (5 μM) as 0%) | IC50 (hPXR [2]; [8]) [µM]
20 | COc1ccc(OC)c(-n2nnc(C(=O)Nc3cccc(C)c3)c2C)c1 [A3] | > 30 | > 30 | (30 ± 3)% | 3.51 ± 0.86 | 52 | 10.9 ± 0.4 | – | – | – | – | – | – | –
21 | COc1ccc(OC)c(-n2nnc(C(=O)Nc3cccc(N(C)C)c3)c2C)c1 [A10] | > 30 | > 30 | – | – | 49 | 10.5 ± 2.1 | – | > 30 | – | – | – | – | –
22 | COC(=O)c1ccc(NC(=O)c2nnn(-c3cc(OC)ccc3OC)c2C)cc1N1CCCC1 [A22] | 10.6 ± 8.63 | > 30 | – | – | – | – | – | > 30 | > 30 | 129 | – | – | –
23 | COc1ccc(OC)c(-n2nnc(C(=O)Nc3ccnc(C(C)(C)C)c3)c2C)c1 [A7] | 10.3 ± 3.25 | > 30 | – | – | – | – | – | > 30 | > 30 | 80 | – | – | –
24 | COc1ccc(OC)c(-n2nnc(C(=O)Nc3cc(C(C)(C)C)ccc3OCC(C)C)c2C)c1 [B32] | – | 0.26 | – | – | 81 | 0.018 | 96 | > 30 | – | 89 | – | – | –
25 | CCCC(C)Oc1ccc(C(C)(C)C)cc1NC(=O)c1nnn(-c2ccccc2OC)c1C (centres unmarked) [I2] | > 30 | 0.032 | (23 ± 19)% | – | 88 | 0.0072 ± 0.0001 | 78 | 0.049 ± 0.008 | – | – | – | – | –
26 | COc1ccc(OC)c(-n2nnc(C(=O)Nc3cc(-n4cnc(C)c4)cc(C(F)(F)F)c3)c2C)c1 [A20] | > 30 | > 30 | – | – | – | – | – | > 30 | > 30 | – | – | – | –
27 | COc1ccc(OC)c(-n2nnc(C(=O)Nc3cc(C(C)(C)C)ccc3OCCOCCOCCOCCO)c2C)c1 [B10] | 0.43 ± 0.14 | 1.92 ± 0.23 | – | – | 62 | 2.34 ± 0.57 | 102 | > 30 | – | 95 | – | – | –
28 | COc1ccc(OC)c(-n2nnc(C(=O)Nc3cc(C(C)(C)C)ccc3OCCOCCOCCOCCOCCOCCOc3ccc(C(C)(C)C)cc3NC(=O)c3nnn(-c4cc(OC)ccc4OC)c3C)c2C)c1 [B23, N,N′-((3,6,9,12,15-pentaoxaheptadecane-1,17-diylbis(oxy))bis(3-(tert-butyl)-6,1-phenylene))bis(1-(2,5-dimethoxyphenyl)-5-methyl-1H-1,2,3-triazole-4-carboxamide)] | 16.7 ± 3.34 | > 30 | – | – | – | – | – | > 30 | > 30 | 45 | – | – | –
29 | COc1ccc(OC)c(-n2nnc(C(=O)Nc3cc(N=C=S)cc(C(C)(C)C)c3)c2C)c1 [D11] | 2.55 ± 0.64 | 30.2 ± 16.1 | – | – | 47 | 2.6 ± 0.51 | 26 | > 30 | – | 95 | – | – | –
30 | CCC(CC)Oc1ccc(C(C)(C)C)cc1NC(=O)c1nnn(-c2cc(OC)ccc2OC)c1C [B31] | 0.0016 | 0.015 | – | – | 91 | 0.0075 ± 0.0011 | 105 | > 30 | – | 111 | – | – | –
31 | COc1ccc(OC)c(-n2nnc(C(=O)Nc3cc(C(C)(C)C)ccc3OC(=O)c3nnn(-c4cc(OC)ccc4OC)c3C)c2C)c1 [B3, 4-(tert-butyl)-2-(1-(2,5-dimethoxyphenyl)-5-methyl-1H-1,2,3-triazole-4-carboxamido)phenyl 1-(2,5-dimethoxyphenyl)-5-methyl-1H-1,2,3-triazole-4-carboxylate] | > 30 | > 30 | (55 ± 6)% | – | – | – | – | 0.59 | > 30 | – | – | – | –
32 | CCOc1cc(NC(=O)c2nnn(-c3cc(OC)ccc3OC)c2C)nc(OCC)n1 [A18] | > 30 | > 30 | – | – | 36 | 12.6 ± 3.09 | – | > 30 | – | – | – | – | –
